ChEMBL document CHEMBL4325850 (Bioorg Med Chem Lett, 2018)
The source made the active and inactive calls. No cut-off for these calls is given here.

Experiments:
[1] = Inhibition of ADP-induced platelet aggregation in human platelet-rich plasma at 0.1 mM preincubated for 5 mins followed by ADP-stimulation and measured within 5 mins by Born's turbidimetric analysis relative to control; conditions: read-out: INH
[2] = molecular target: Dipeptidyl peptidase 8 (Homo sapiens, UniProt Q6V1X1); test: Inhibition of human recombinant DPP-8 using H-Gly-Pro-AMC as substrate after 10 mins by fluorescence assay
[3] = molecular target: Dipeptidyl peptidase 9 (Homo sapiens, UniProt Q86TI2); test: Inhibition of human recombinant DPP-9 using H-Gly-Pro-AMC as substrate after 10 mins by fluorescence assay
[4] = Induction of NO production in pH 7.4 PBS incubated for 1 to 14 hrs under dark conditions and measured every 1 hr for 2 hrs and then every 2 hrs for remaining time by Griess assay; type: functional

Sequence of Dipeptidyl peptidase 8 (Q6V1X1 whole entry): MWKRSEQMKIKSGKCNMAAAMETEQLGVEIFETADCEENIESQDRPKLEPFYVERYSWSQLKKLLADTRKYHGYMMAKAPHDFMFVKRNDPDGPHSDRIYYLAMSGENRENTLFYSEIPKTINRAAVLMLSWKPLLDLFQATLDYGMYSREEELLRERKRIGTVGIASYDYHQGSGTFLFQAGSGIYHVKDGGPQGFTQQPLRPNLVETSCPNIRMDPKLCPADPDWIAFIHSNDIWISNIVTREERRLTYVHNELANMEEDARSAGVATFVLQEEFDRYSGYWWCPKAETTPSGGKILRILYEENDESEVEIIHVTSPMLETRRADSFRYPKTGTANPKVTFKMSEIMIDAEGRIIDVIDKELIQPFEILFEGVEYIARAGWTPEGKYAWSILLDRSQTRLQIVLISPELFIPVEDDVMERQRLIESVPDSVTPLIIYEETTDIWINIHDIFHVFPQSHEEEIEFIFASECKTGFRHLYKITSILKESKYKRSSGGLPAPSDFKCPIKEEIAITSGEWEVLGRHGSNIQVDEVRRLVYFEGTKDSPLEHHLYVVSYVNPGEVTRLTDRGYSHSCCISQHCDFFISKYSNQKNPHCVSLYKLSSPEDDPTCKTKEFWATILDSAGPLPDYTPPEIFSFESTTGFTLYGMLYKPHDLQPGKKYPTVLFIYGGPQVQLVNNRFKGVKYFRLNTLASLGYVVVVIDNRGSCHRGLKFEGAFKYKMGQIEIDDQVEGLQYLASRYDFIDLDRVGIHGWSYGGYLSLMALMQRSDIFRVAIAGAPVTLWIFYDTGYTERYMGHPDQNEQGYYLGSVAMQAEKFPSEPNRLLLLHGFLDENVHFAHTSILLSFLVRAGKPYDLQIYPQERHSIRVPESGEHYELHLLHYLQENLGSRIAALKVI
Sequence of Dipeptidyl peptidase 9 (Q86TI2 whole entry): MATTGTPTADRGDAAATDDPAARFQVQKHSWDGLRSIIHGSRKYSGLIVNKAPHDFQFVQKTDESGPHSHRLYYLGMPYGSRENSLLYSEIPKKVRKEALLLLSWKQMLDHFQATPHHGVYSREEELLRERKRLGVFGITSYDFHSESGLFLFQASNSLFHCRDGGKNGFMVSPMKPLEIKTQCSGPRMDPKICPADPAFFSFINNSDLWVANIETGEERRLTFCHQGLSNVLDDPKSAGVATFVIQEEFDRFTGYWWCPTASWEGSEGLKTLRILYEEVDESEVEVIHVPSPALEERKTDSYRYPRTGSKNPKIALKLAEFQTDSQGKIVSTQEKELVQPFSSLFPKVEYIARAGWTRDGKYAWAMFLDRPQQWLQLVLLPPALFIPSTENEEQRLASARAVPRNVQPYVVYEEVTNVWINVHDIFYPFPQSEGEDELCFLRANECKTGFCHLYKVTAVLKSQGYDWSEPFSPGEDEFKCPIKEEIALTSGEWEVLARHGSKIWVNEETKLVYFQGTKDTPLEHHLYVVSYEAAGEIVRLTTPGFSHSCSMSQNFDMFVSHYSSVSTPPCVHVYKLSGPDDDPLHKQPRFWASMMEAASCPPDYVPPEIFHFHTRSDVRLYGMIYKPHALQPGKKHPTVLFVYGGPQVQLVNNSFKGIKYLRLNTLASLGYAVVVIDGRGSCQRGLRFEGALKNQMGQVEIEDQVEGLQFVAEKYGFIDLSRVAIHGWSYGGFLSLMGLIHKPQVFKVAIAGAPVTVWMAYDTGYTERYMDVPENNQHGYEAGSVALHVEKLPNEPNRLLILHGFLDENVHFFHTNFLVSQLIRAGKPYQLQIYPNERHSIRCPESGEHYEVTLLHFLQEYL

## CC(=O)Oc1ccccc1C(=O)O [ASPIRIN]
[1]
  inhibition at 100 µM: 26%

## O=C(CCCO)N[C@@H](CC(=O)N1CCn2c(nnc2C(F)(F)F)C1)Cc1cc(F)c(F)cc1F
[2]
  IC50: > 100 µM
[3]
  IC50: > 100 µM
[1]
  inhibition at 100 µM: 3.41%

## O=C(CCCCCO[N+](=O)[O-])N[C@@H](CC(=O)N1CCn2c(nnc2C(F)(F)F)C1)Cc1cc(F)c(F)cc1F
[2]
  IC50: > 100 µM
[3]
  IC50: > 100 µM
[4]
  Activity: Active
[1]
  inhibition at 100 µM: 40.2%

## O=C(CCCO[N+](=O)[O-])N[C@@H](CC(=O)N1CCn2c(nnc2C(F)(F)F)C1)Cc1cc(F)c(F)cc1F
[2]
  IC50: > 100 µM
[3]
  IC50: > 100 µM
[4]
  Activity: Active
[1]
  inhibition at 100 µM: 27.6%

## N[C@@H](CC(=O)N1CCn2c(nnc2C(F)(F)F)C1)Cc1cc(F)c(F)cc1F [SITAGLIPTIN]
[1]
  inhibition at 100 µM: 4.24%

## O=C(CO[N+](=O)[O-])N[C@@H](CC(=O)N1CCn2c(nnc2C(F)(F)F)C1)Cc1cc(F)c(F)cc1F
[2]
  IC50: > 100 µM
[3]
  IC50: > 100 µM
[4]
  Activity: Active
[1]
  inhibition at 100 µM: 22.4%

## O=C(CCCCO)N[C@@H](CC(=O)N1CCn2c(nnc2C(F)(F)F)C1)Cc1cc(F)c(F)cc1F
[2]
  IC50: > 100 µM
[3]
  IC50: > 100 µM
[1]
  inhibition at 100 µM: 2.02%

## O=C(CCCCCO)N[C@@H](CC(=O)N1CCn2c(nnc2C(F)(F)F)C1)Cc1cc(F)c(F)cc1F
[2]
  IC50: > 100 µM
[3]
  IC50: > 100 µM
[1]
  inhibition at 100 µM: 3.63%

## O=C(CCCCO[N+](=O)[O-])N[C@@H](CC(=O)N1CCn2c(nnc2C(F)(F)F)C1)Cc1cc(F)c(F)cc1F
[2]
  IC50: > 100 µM
[3]
  IC50: > 100 µM
[4]
  Activity: Active
[1]
  inhibition at 100 µM: 32.1%

## O=C(CO)N[C@@H](CC(=O)N1CCn2c(nnc2C(F)(F)F)C1)Cc1cc(F)c(F)cc1F
[2]
  IC50: > 100 µM
[3]
  IC50: > 100 µM
[1]
  inhibition at 100 µM: 3.22%
